Laboratory results: US9624256B2, “Coordination complexes, pharmaceutical solutions comprising coordination complexes, and methods of treating patients” (SYNTHONICS, INC., priority 2004, dated 2017)
Several values for one entry are separate records, joined by “and”; a condition that tells them apart may be missing. Equal values may be shown once. Read-outs that look alike come from different tables or passages of the source. One block for each compound: values may come before it.

Tests used:
[1] = Precipitation test after adjusting aqueous solution to pH 7.0; assay type: physicochemical; settings: 32 mg based on topiramate in 1 mL H2O, pH adjusted to 7.0 with 1.0 N HCl
[2] = Solubility/pH studies of topiramate-containing coordination complexes (gravimetric); assay type: physicochemical
Experimental: Solubility/pH Studies of Topiramate-Containing Coordination Complexes: Initial screening of drug candidates was based on a qualitative determination of aqueous solubility using gravimetric methods. Briefly, a known quantity of coordination compound (ca. 50 mg) was dissolved in a known amount of water ([…]). The pH of the resulting mixture was measured, and the solution/suspension was filtered and concentrated to afford a minimal solubility value.

[3] = for pH: Table 2, pH of the solution; for increase in water solubility over SAHA: pH 10
[4] = cited from earlier work
[5] = highly variable; cited from earlier work
[6] = 23° C., cited from earlier work
[7] = pH 7.4; cited from earlier work

- pH of the solution [3]: 7.75
- pH [3]: 7.94
Compound: O=C(CCCCCCC(=O)Nc1ccccc1)N[O-].O=C(CCCCCCC(=O)Nc1ccccc1)N[O-].[Mg+2] [Compound 1, Mg(saha)2]

- pH of the solution [3]: 8.60
- pH [3]: 8.6
Compound: O=C(CCCCCCC(=O)Nc1ccccc1)N[O-].O=C(CCCCCCC(=O)Nc1ccccc1)N[O-].[Ca+2] [Compound 2, Ca(saha)2]
- pH of solution compared with SAHA ([3]; in words): slightly higher than the pH of a solution of SAHA itself

- pH of the solution [3]: 5.86
- pH [3]: 5.67
Compound: O=C(CCCCCCC(=O)Nc1ccccc1)N[O-].O=C(CCCCCCC(=O)Nc1ccccc1)N[O-].[Ni+2] [Compound 3, Ni(saha)2]

More lines, now with the values behind:

Compound: CC1(C)O[C@@H]2[C@@H](CO[C@@]3(COS([NH-])(=O)=O)OC(C)(C)O[C@@H]23)O1.CC1(C)O[C@@H]2[C@@H](CO[C@@]3(COS([NH-])(=O)=O)OC(C)(C)O[C@@H]23)O1.[Ca+2] [Calcium Salt of Topiramate]
- precipitation on standing [1]: A precipitate formed immediately

Compound: CC1(C)O[C@@H]2[C@@H](CO[C@@]3(COS([NH-])(=O)=O)OC(C)(C)O[C@@H]23)O1.CC1(C)O[C@@H]2[C@@H](CO[C@@]3(COS([NH-])(=O)=O)OC(C)(C)O[C@@H]23)O1.[Ca+2] [Calcium(topiramate)2]
- precipitation on standing [1]: No precipitate was observed upon standing for 2 hours
- solubility relative to free topiramate ([2]; pH 7.0): at least three times the solubility of free topiramate
- solubility (minimal value) ([2]; pH 7.0, gravimetric): ≥ 34 mg/mL

Compound: O=C(CCCCCCC(=O)Nc1ccccc1)N[O-].[Na+] [Na(saha)]
- pH of the solution [3]: around 10
- pH [3]: 10
- pH of the solution ([3]; listed as sodium salt of SAHA): 10
- increase in water solubility over SAHA [3]: ~7 fold
- solution pH required to stay in solution ([4]; prior study, Memorial Sloan Kettering Cancer Center): above 11

Compound: O=C(CCCCCCC(=O)Nc1ccccc1)NO [SAHA, suberoylanilide hydroxamic acid]
- oral bioavailability [5]: less than 50%
- pH [3]: 7.95
- water solubility [4]: about 0.1 mg/mL

Compound: CC1(C)O[C@@H]2[C@@H](CO[C@@]3(COS([NH-])(=O)=O)OC(C)(C)O[C@@H]23)O1.O.O.O.[Na+] [sodium topiramate trihydrate]
- water solubility ([6]; trihydrate): about 1300 mg/mL and ~3.59 M

Compound: CC1(C)O[C@@H]2[C@@H](CO[C@@]3(COS(N)(=O)=O)OC(C)(C)O[C@@H]23)O1 [topiramate, 2,3:4,5-bis-O-isopropylidene-β-D-fructopyranose sulfamate]
- water solubility [6]: about 9.8 mg/mL and ~0.029 M
- log D [7]: −0.5

Compound: Ca(saha)(quinic acid) [Compound 5]
- increase in water solubility over SAHA [3]: ~19 fold

Compound: Ca(saha)(tricine) [Compound 4]
- pH of the solution [3]: 8.75
- pH [3]: 8.75
